In data set [1] the test system is Drosophila larvae (24B-GAL4>UAS-i(CTG)480; (CTG)60 control). Description: Larval crawling assay. It is filed as in vivo. The following applies: for mobility of normal larvae: 400 μM in fly food, control (CTG)60 larvae. As to the method: FIG. 4A-C. Efficacy of 1a and 2a in DM1 Drosophilia fly mode. (a) Improvement in adult rough eye phenotype. Each experiment was conducted in triplicate. (b) Effect of ligands on the control Drosophilia larvae (24B−GAL4>UAS−(CTG)60). (c) Dose-dependent effect of ligands on the DM1 larvae (24B−GAL4>UAS−i(CTG)480). Each experiment was conducted in triplicate, 10 individual larvae for each trial. Error bars represent standard deviation, two tail t-test *P<0.05, **P<0.01, ***P<0.001.
An individual larva generated from transgenic flies was placed on a Petri dish over graph paper, and the number of grid lines crossed by the larva in 1 min was recorded.
Drosophila lines were cultured in standard cornmeal medium supplemented with dry yeasts. Fly lines bearing UAS-(CTG)60 and UAS-(CTG)480 were kind gifts of Prof. Rubén Artero Allepuz (Universitate de València, Estudi General, Spain). The gmr-GAL4 and […] lines were used to drive UAS transgene expression in eye and muscles respectively. Ligands 1a and 2a were dissolved in ddH2O and mixed with fly food. Genetic crosses were set up in drug-containing fly food at 21.5° C. for external eye assay, and at 25° C. for larval crawling assay.
Larval crawling assay was performed as previously described (Lanson et al., Hum. Mol. Genet. 2011, 20, 2510-2523). Ten wandering third instar larvae were washed in ddH2O and placed on a 2% agarose gel in a 15-cm Petri dish with gridlines spaced at 0.5 cm. The larvae were allowed to acclimate for a period of 1 min, and the total number of gridlines that the posterior end of the larvae passes in 1 min was determine. Each set of experiment was repeated independently for three times using larvae collected from separate genetic crosses.

A further data set concerns MBNL1-(CUG)16 complex. Description: EMSA inhibition of the MBNL1-(CUG)16 complex. It is filed as biochemical. Particulars: for Ki: KI=IC50×KD/[protein]total, read-out: KI, apparent inhibition constant, MBNL1-(CUG)16 complex. As for the experimental part: FIG. 1A-B. Determination of inhibition constants, KI, by EMSA. (a) Representative gels showing the release of (CUG)16 at different ligand concentrations. Top band is the MBNL1-(CUG)16 complex, the bottom band is the free (CUG)16. (b) IC50 values were obtained by plotting the RNA fraction bound versus ligand concentrations. The apparent inhibition constant (KI) was calculated using the equation: KI=IC50×KD/[protein]total, where KD is the dissociation constant of the MBNL1-RNA complex and [protein] is at least 7-fold greater than the KD. Error bars represent standard deviation of three independent experiments.
An electrophoretic mobility shift assay (EMSA) was employed to determine the in vitro inhibition of MBNL1-rCUG^exp complex by monomer 1a and dimers 2a-b (FIG. 1). This study used (CUG)16, which can form a hairpin structure containing a maximum of 8 U-U mismatches. […] Likely, a 1:1 complex was formed. In this study, a truncated MBNL1 (1-272 amino acids) containing four zinc finger motifs of MBNL1 and a hexahistidine tag (C-terminus) was employed. This MBNL1 construct and the full-length MBNL1 have the similar affinities to rCUG repeats.
To determine the inhibition constant of bivalent ligands 2a and 2b, the MBNL1-(CUG)16 mixture, in which ca. 50% of the RNA is free, was incubated with various concentrations of ligand (FIG. 1a). The dimer concentrations were not raised to higher than 10 μM due to the aggregation on the gel at high concentrations. As the concentration of ligand increased, more RNA was released from the complex with MBNL protein. By fitting the plot of bound RNA fractions versus ligand concentrations with an appropriate equation, the IC50 value was determined (FIG. 1b).
(CUG)16 RNA was labeled with [γ-^32P]-ATP using T4 poly-nucleotide kinase (New England Biolabs). Labeled RNA was purified by phenol extraction and ethanol precipitation. Labeled RNA was heated at 95° C. for 5 min, then placed on ice for 10 min and diluted in protein binding buffer (175 mM NaCl, 5 mM MgCl2, 20 mM Tris-HCl (pH 8), 1.25 mM 2-mercapto-ethanol (BME), 12.5% glycerol, 2 mg/ml bovine serum albumin (BSA), 0.1 mg/ml heparin, 0.05% or 0.1% Triton X). For MBNL1-(CUG)16 binding study, MBNL1 was serially diluted by a factor of 3 in protein binding buffer. To each solution was added labeled RNA, so that the final concentration of RNA was 0.2 nM. The resulting mixtures were incubated at room temperature for 10 min and loaded onto a 6% polyacrylamide gel (80:1) at 4° C. The gel was run for 2 h at 180 V in Tris-Borate 0.5× buffer (pH 8.2-8.3). Gels were dried at 80° C. under high vacuum for 2 h, developed overnight in phosphor exposure cassette, and visualized on a Molecular Dynamics Storm PhosphorImager. The KD (1:1 stoichiometry assumption) was obtained by fitting the normalized fraction RNA bound versus the concentration of protein using the equation: Fraction RNA bound=Bmax×[MBNL1]total^h/(KD^h+MBNL1]total^h) where Bmax is maximum fraction RNA bound, h is a Hill slope. Protein concentration in reaction mixture was larger than 10-fold excess over RNA concentration. Data is illustrated in FIGS. 6 and 7.
A general note: Mobility shift assays separate free from complexed probe on a gel.

The IC50 is the concentration that inhibits the measured activity by half. Consider `N=C(NCCCCNc1nc(N)nc(N)n1)c1ccc(C(=N)NCCCCNc2nc(N)nc(N)n2)cc1` [Compound 1a], for which the crawling defect rescued entry in data set [1] (100 μM, DM1 larvae) is “ca. 14%”; in data set [1] (200 μM, DM1 larvae), approximately 54%; in data set [1] (400 μM, DM1 larvae), approximately 84%. For the same compound, in data set [1], the “mobility of normal larvae” value is given as “the mobility is not affected”. In the data set with MBNL1-(CUG)16 complex (EMSA), this compound had an IC50 of 189 ± 33 µM. For the same compound, the “KI of 1a relative to that for 2a and 2b (fold higher)” value at MBNL1-(CUG)16 complex (EMSA, identical conditions) is listed as approximately 1000 fold. The Ki on MBNL1-(CUG)16 complex (EMSA) turned out to be 16 ± 6 µM.

As to `N=C(NCCCCNc1nc(N)nc(N)n1)c1ccc(C(=N)NCCCCNc2nc(N)nc(NCCCn3cc(CNc4nc(N)nc(NCCCCNC(=N)c5ccc(C(=N)NCCCCNc6nc(N)nc(N)n6)cc5)n4)nn3)n2)cc1` [Compound 2a], the “improvement in the DM1 larva's mobility” value in data set [1] (20 μM, DM1 larvae) is on record as 37%. The crawling defect rescued result in data set [1] (100 μM, DM1 larvae) was “nearly full recovered”. Besides, the “mobility of normal larvae” value in data set [1] is on record as “the mobility is not affected”. Also, the “inhibitory power toward the MBNL1-rCUG^exp interaction relative to compound 1a (fold greater)” value in the data set with MBNL1-(CUG)16 complex is “ca. 1000 fold”. For the same compound, in the data set with MBNL1-(CUG)16 complex (EMSA), the IC50 came out at 0.29 ± 0.03 µM and the Ki was 0.025 ± 0.008 µM.

(Values after patent US10266520B2, “Bisamidinium-based inhibitors for the treatment of myotonic dystrophy” (The Board of Trustees of the University of Illinois, priority 2014, dated 2019).)
